Assay results: PubChem BioAssay AID1259411 (Chemical Carcinogenesis Research Information System (CCRIS), 2018)
Active and inactive are the calls of the source. The rule behind the calls is not given here.

Test system: rodent carcinogenicity bioassays, tumor incidence
Test: CCRIS carcinogenicity studies
Source text: The CCRIS database contains chemical records with carcinogenicity, mutagenicity, tumor promotion, and tumor inhibition test results. It was developed by the National Cancer Institute (NCI). Data are derived from studies cited in primary journals, current awareness tools, NCI reports, and other sources. Test results have been reviewed by experts in carcinogenesis and mutagenesis.
CCRIS provides historical information from the years 1985 - 2011. It is no longer updated.
This is an archive assay for CCRIS carcinogenicity studies.

`CCOC(=O)N(CC)N=O` was tested, and the carcinogen call (Species: HAMSTER, Strain/Sex: SYRIAN/FEMALE, Route: GAVAGE, Dose: 0, 14 MG/ML ((0.2 ML OF A SOLUTION IN ETHYL ACETATE/CORN OIL (1:2)) 1/WK FOR 28 WK (STUDY DURATION: LIFE SPAN), Tumor Site: Type of Lesion: PANCREAS: CARCINOMA OR ADENOMA, FORESTOMACH: SQUAMOUS CELL CARCINOMA OR PAPILLOMA) was “active; positive”, the carcinogen call (Species: RAT, Strain/Sex: DONRYU/FEMALE, Route: ORAL, Dose: 0, 25, 50, 100 PPM IN DRINKING WATER FOR 60 WK, Dose: 0, 25, 50, 100 PPM IN DRINKING WATER FOR 60 WK, Tumor Site: Type of Lesion: ORAL CAVITY: PAPILLOMA, CARCINOMA, ESOPHAGUS: PAPILLOMA, CARCINOMA, FORESTOMACH: PAPILLOMA, CARCINOMA, DUODENUM: ADENOMA, Tumor Site: Type of Lesion: ORAL CAVITY: PAPILLOMA, CARCINOMA, ESOPHAGUS: PAPILLOMA, CARCINOMA, FORESTOMACH: PAPILLOMA, CARCINOMA, DUODENUM: ADENOMA) was “active; positive” and the carcinogen call (Species: RAT, Strain/Sex: F344/FEMALE, Route: GAVAGE, Dose: 0, 0.36, 1.6 MG/ANIMAL IN CORN OIL 1/WK FOR 20 WK (STUDY DURATION: 114 WK), Dose: 0, 0.36, 1.6 MG/ANIMAL IN CORN OIL 1/WK FOR 20 WK (STUDY DURATION: 114 WK), Tumor Site: Type of Lesion: FORESTOMACH: CARCINOMA, PAPILLOMA OR CARCINOMA) was “active; positive”. The carcinogen call (Species: RAT, Strain/Sex: F344/FEMALE, Route: INTRAVESICULAR, Dose: 0, 0.8 MG 2/WK FOR 14 WK (STUDY DURATION: LIFETIME), Tumor Site: Type of Lesion: BLADDER: TUMOR) was “active; positive” and the carcinogen call (Species: RAT, Strain/Sex: F344/FEMALE, Route: ORAL, Dose: 0, 0.15, 0.6, 2.5, 10 PPM IN DISTILLED WATER FOR 2 YRS (STUDY DURATION: 112 WK), Dose: 0, 0.15, 0.6, 2.5, 10 PPM IN DISTILLED WATER FOR 2 YRS (STUDY DURATION: 112 WK), Tumor Site: Type of Lesion: ORAL CAVITY: PAPILLOMA, CARCINOMA, ESOPHAGUS: PAPILLOMA, CARCINOMA, FORESTOMACH: PAPILLOMA, CARCINOMA, Tumor Site: Type of Lesion: ORAL CAVITY: PAPILLOMA, CARCINOMA, ESOPHAGUS: PAPILLOMA, CARCINOMA, FORESTOMACH: PAPILLOMA, CARCINOMA) was “active; positive”.
In the case of `Oc1cc2c(c3ccc4ccccc4c13)CCC2`, the carcinogen call (Species: MOUSE, Strain/Sex: TO/MALE, FEMALE, Route: DERMAL, Dose: 0, 50 UG (10 µL OF A 0.5% W/V TOLUENE SOLUTION) 2/WK FOR 70 WK (STUDY DURATION: 70 WK), Tumor Site: Type of Lesion: SKIN: PAPILLOMA OR CARCINOMA) is reported as “active; positive”.
For `O=NN1CCCOC1`, the carcinogen call (Species: RAT, Strain/Sex: F344/FEMALE, Route: ORAL, Dose: 40 MG/L IN DRINKING WATER FOR 50 WK, Tumor Site: Type of Lesion: LIVER: HEPATOCELLULAR CARCINOMA, HEMANGIOENDOTHELIAL SARCOMA) was “active; positive”.
In the case of `CC(Cl)Cl`, the carcinogen call (Species: MOUSE, Strain/Sex: B6C3F1/FEMALE, Route: GAVAGE, Dose: 0, 1665, 3331 MG/KG 5/WK FOR 78 WK (STUDY DURATION: 91 WK), Dose: 0, 1665, 3331 MG/KG 5/WK FOR 78 WK (STUDY DURATION: 91 WK), Tumor Site: Type of Lesion: UTERUS: ENDOMETRIAL STROMAL POLYP) is reported as “equivocal”, the carcinogen call (Species: MOUSE, Strain/Sex: B6C3F1/MALE, Route: GAVAGE, Dose: 0, 1,442, 2,885 MG/KG 5/WK FOR 78 WK (STUDY DURATION: 91 WK), Dose: 0, 1,442, 2,885 MG/KG 5/WK FOR 78 WK (STUDY DURATION: 91 WK)) is reported as “inactive; negative” and the carcinogen call (Species: RAT, Strain/Sex: OSBORNE-MENDEL/FEMALE, Route: GAVAGE, Dose: 0, 475, 950 MG/KG 5/WK FOR 78 WK (STUDY DURATION: 111 WK), Dose: 0, 475, 950 MG/KG 5/WK FOR 78 WK (STUDY DURATION: 111 WK), Tumor Site: Type of Lesion: MAMMARY GLAND: ADENOCARCINOMA, LUNG: HEMANGIOSARCOMA, SPLEEN: HEMANGIOSARCOMA, Tumor Site: Type of Lesion: MAMMARY GLAND: ADENOCARCINOMA, LUNG: HEMANGIOSARCOMA, SPLEEN: HEMANGIOSARCOMA) is reported as “equivocal”. For the same molecule, the carcinogen call (Species: RAT, Strain/Sex: OSBORNE-MENDEL/MALE, Route: GAVAGE, Dose: 0, 382, 764 MG/KG 5/WK FOR 78 WK (STUDY DURATION: 111 WK), Dose: 0, 382, 764 MG/KG 5/WK FOR 78 WK (STUDY DURATION: 111 WK)) was “inactive; negative”.
With `Cc1ccc([N+](=O)[O-])cc1` the carcinogen call (Species: MOUSE, Strain/Sex: B6C3F1/FEMALE, Route: ORAL, Dose: 0, 1250, 2500, 5000 PPM FOR 105-106 WK (STUDY DURATION: 105-106 WK), Dose: 0, 1250, 2500, 5000 PPM FOR 105-106 WK (STUDY DURATION: 105-106 WK)) was “inactive; negative”, the carcinogen call (Species: MOUSE, Strain/Sex: B6C3F1/MALE, Route: ORAL, Dose: 0, 1250, 2500, 5000 PPM FOR 105-106 WK (STUDY DURATION: 105-106 WK), Dose: 0, 1250, 2500, 5000 PPM FOR 105-106 WK (STUDY DURATION: 105-106 WK), Tumor Site: Type of Lesion: LUNG: ALVEOLAR/BRONCHIOLAR ADENOMA OR CARCINOMA) was “equivocal” and the carcinogen call (Species: RAT, Strain/Sex: F344/FEMALE, Route: ORAL, Dose: 0, 1250, 2500, 5000 PPM FOR 105-106 WK (STUDY DURATION: 105-106 WK), Dose: 0, 1250, 2500, 5000 PPM FOR 105-106 WK (STUDY DURATION: 105-106 WK), Tumor Site: Type of Lesion: CLITORAL GLAND: ADENOMA OR CARCINOMA) was “active; positive”. For the same molecule, the carcinogen call (Species: RAT, Strain/Sex: F344/MALE, Route: ORAL, Dose: 0, 1250, 2500, 5000 PPM FOR 105-106 WK (STUDY DURATION: 105-106 WK), Dose: 0, 1250, 2500, 5000 PPM FOR 105-106 WK (STUDY DURATION: 105-106 WK), Tumor Site: Type of Lesion: SKIN (SUBCUTANEOUS):FIBROMA, FIBROMA OR FIBROSARCOMA) was “equivocal”.
For `O[C@@H]1C=Cc2c(ccc3cc4ccc5ccccc5c4nc23)[C@H]1O`, the carcinogen call (Species: MOUSE, Strain/Sex: CD-1/FEMALE, Route: INTRAPERITONEAL, Dose: 0, 175 NMOL (TOTAL DOSE) ADMINISTERED AS 1/7 OF DOSE WITHIN 24 HR AFTER BIRTH, 2/7 OF DOSE AT 8 D OLD, 4/7 OF DOSE AT 15, Tumor Site: Type of Lesion: LUNG: TUMOR) was “active; positive” and the carcinogen call (Species: MOUSE, Strain/Sex: CD-1/MALE, Route: INTRAPERITONEAL, Dose: 0, 175 NMOL (TOTAL DOSE) ADMINISTERED AS 1/7 OF DOSE WITHIN 24 HR AFTER BIRTH, 2/7 OF DOSE AT 8 D OLD, 4/7 OF DOSE AT 15, Tumor Site: Type of Lesion: LIVER: TUMOR, LUNG: TUMOR) was “active; positive”.
With `Nc1ccc(O)c([N+](=O)[O-])c1` the carcinogen call (Species: MOUSE, Strain/Sex: B6C3F1/FEMALE, Route: ORAL, Dose: 0, 1250, 2500 PPM IN DIET FOR 103 WK (STUDY DURATION: 105 WK), Dose: 0, 1250, 2500 PPM IN DIET FOR 103 WK (STUDY DURATION: 105 WK)) was “inactive; negative”, the carcinogen call (Species: MOUSE, Strain/Sex: B6C3F1/MALE, Route: ORAL, Dose: 0, 1250, 2500 PPM IN DIET FOR 103 WK (STUDY DURATION: 105 WK), Dose: 0, 1250, 2500 PPM IN DIET FOR 103 WK (STUDY DURATION: 105 WK)) was “inactive; negative” and the carcinogen call (Species: RAT, Strain/Sex: F344/FEMALE, Route: ORAL, Dose: 0, 1250, 2500 PPM IN DIET FOR 103 WK (STUDY DURATION: 105 WK), Dose: 0, 1250, 2500 PPM IN DIET FOR 103 WK (STUDY DURATION: 105 WK), Tumor Site: Type of Lesion: BLADDER: CARCINOMA) was “equivocal”. The carcinogen call (Species: RAT, Strain/Sex: F344/MALE, Route: ORAL, Dose: 0, 1250, 2500 PPM IN DIET FOR 103 WK (STUDY DURATION: 105 WK), Dose: 0, 1250, 2500 PPM IN DIET FOR 103 WK (STUDY DURATION: 105 WK), Tumor Site: Type of Lesion: URINARY BLADDER: TRANSITIONAL CELL CARCINOMA) was “active; positive”.
In the case of `N#CC(Br)Br`, the carcinogen call (Species: Mouse, Strain/Sex: B6C3F1/Female (50/group), Route: Oral, Dose: 0, 50, 100, 200 mg/l in drinking water for 2 yr, Dose: 0, 50, 100, 200 mg/l in drinking water for 2 yr, Tumor Site: Type of Lesion: Forestomach: squamous cell papilloma and squamous cell carcinoma combined (1/50, 0/50, 5/50, 14/50)) is reported as “active; positive (ntp describes as clear evidence)”, the carcinogen call (Species: Mouse, Strain/Sex: B6C3F1/Male (50/group), Route: Oral, Dose: 0, 50, 100, 200 mg/l in drinking water for 2 yr, Dose: 0, 50, 100, 200 mg/l in drinking water for 2 yr, Tumor Site: Type of Lesion: Forestomach: squamous cell papilloma and squamous cell carcinoma combined (0/50, 1/50, 0/50, 5/50). Liver: hepatoblastom) is reported as “active; positive (ntp describes as clear evidence)” and the carcinogen call (Species: Rat, Strain/Sex: F344/N / Female (50/group), Route: Oral, Dose: 0, 50, 100, 200 mg/l in drinking water for 2 yr, Dose: 0, 50, 100, 200 mg/l in drinking water for 2 yr, Tumor Site: Type of Lesion: Oral Cavity (oral mucosa or tongue): squamous cell papilloma (1/50, 0/50, 4/50, 0/50). Skin: squamous cell papilloma, ke) is reported as “active; positive (ntp describes as some evidence)”. The carcinogen call (Species: Rat, Strain/Sex: F344/N / Male (50/group), Route: Oral, Dose: 0, 50, 100, 200 mg/l in drinking water for 2 yr, Dose: 0, 50, 100, 200 mg/l in drinking water for 2 yr, Tumor Site: Type of Lesion: Oral Cavity (oral mucosa or tongue): squamous cell papilloma and carcinoma combined (0/50, 0/50, 2/50, 5/50) (Statistica) was “active; positive (ntp describes as clear evidence)”.
